The text below walks through data of publication PMC10463376, “Design, synthesis, in vitro anticancer, molecular docking and SAR studies of new series of pyrrolo[2,3-d]pyrimidine derivatives” (BMC Chemistry, 2023).

≈ marks a conversion by molar mass, not a printed value. Read-outs that look alike come from different tables or passages of the source.

In series [1] the test system is MCF7 breast cancer cells. The series is described as follows: MTT assay, MCF7. The conditions noted are these: for IC50 / cytotoxicity at 100 µg/mL: Homo sapiens, MCF7, 72 h; for IC50: read-out: IC50 MCF7; for cytotoxicity at 100 µg/mL / cytotoxicity: read-out: MTT cell proliferation mortality assay (%) MCF7; for cytotoxicity: at 100 μg/ml, 72 h. An excerpt:
(§1) All of the following steps were done in a sterile Laminar flow class II biosafety cabinet (Baker, SG406INT, Sanford, ME, USA). DMEM was used as a suspension medium for breast cancer (MCF7), colorectal cancer (HCT116), prostate cancer (PC3), liver cancer (HePG2), pancreatic cancer (PACA2) and lung cancer (A549), while normal cell line (BJ1) was suspended in DMEM-F12 medium. The selected cell lines were purchased from American Type Culture Collection (ATCC). The media were supplemented with a 1% antimycotic-antibiotic mixture (10,000 µg/ml streptomycin sulfate, 25 µg/ml Amphotericin B, and 10,000 U/ml Potassium Penicillin) and 1% L-glutamine. 10 × 10^4cells/well were seeded in 96 well microtiter plates and incubated for 24 h at 37 ℃ under 5% carbon dioxide using a water-jacketed Carbon dioxide incubator (Sheldon, SCO5A, OR, USA). […] After the incubation time of 72 h, the medium was removed. Afterward, 40 µl MTT salt ([…]) was added to each well and kept for 4 h under the same conditions of 37 °C and 5% carbon dioxide. Finally, 200 μl of 10% Sodium dodecyl sulfate (SDS) in deionized water was added to each well and incubated overnight at 37 °C. The step of SDS addition was done to stop the reaction and dissolve the formed formazan crystals. The absorbance was then measured at a wavelength of 595 nm and the reference wavelength was set at 620 nm using a microplate multi-well reader (Bio-Rad Laboratories Inc., model 3356, California, USA). […] A statistical significance analysis was determined between the samples and the negative control using an independent t-test by SPSS 11 program. Dimethyl sulfoxide (DMSO) was the vehicle that dissolved our synthesized compounds and its concentration in the cells was less than 0.2%. IC50 values were calculated using the GraphPad Prism 6 program. The degree of selectivity of the synthetic compounds was expressed as SI = IC50 of a pure compound in a normal cell line/IC50 of the same pure compound in the cancer cell line, where IC50 is the concentration of the compound required to kill 50% of the cells.
In general terms: Tetrazolium assays rely on reduction of a dye to a coloured formazan, in cell work by metabolically active cells.

Series [2] concerns A549 lung cancer cells. As to the kind of experiment: MTT assay, A549. The conditions noted are these: for cytotoxicity at 100 µg/mL / IC50: Homo sapiens, A549, 72 h; for IC50: read-out: IC50 A549.
Source text: as §1

Series [3] relates to PC3 prostate cancer cells. As to the kind of experiment: MTT assay, PC3. The conditions noted are these: 72 h; for IC50 / cytotoxicity at 100 µg/mL: Homo sapiens; for IC50: read-out: IC50 PC3.
Source text: as §1

Series [4] has as its system HePG2 liver cancer cells. The series is described as follows: MTT assay, HePG2. The conditions noted are these: Homo sapiens, HepG2, 72 h; for IC50: read-out: IC50 HePG2; for cytotoxicity at 100 µg/mL: read-out: MTT cell proliferation mortality assay (%) HePG2.
Source text: as §1

In series [5] the test system is PACA2 pancreatic cancer cells. The series is described as follows: MTT assay, PACA2. Conditions: Homo sapiens, PaCa-2, 72 h; for IC50: read-out: IC50 PACA2; for cytotoxicity at 100 µg/mL: read-out: MTT cell proliferation mortality assay (%) PACA2.
Source text: as §1

Series [6] deals with breast cancer cell line (MCF-7). The series is described as follows: DNA fragmentation assay, MCF7. The conditions noted are these: MCF7, IC50, 24 h, vs negative control (P < 0.01); order 14a > 18b > positive > 16b > 14b. In kind it is cell-based, human. As to the method: The DNA fragmentation assay in a pancreatic cell line (Paca2), breast cancer cell lines (MCF-7) and lung cell line (A549) was performed in concordance with the premises established by Yawata with some modifications. Briefly, after 24 h of exposure of Paca2, MCF-7 and A549 cancer cell lines to the prepared compounds in different Petri dishes (60 × 15 mm, Greiner), the cells were suspended and homogenized in 1 ml of medium and then centrifuged for 10 min at 900 rpm. The genomic DNA was extracted as shown in Yawata. About 1 × 10^6 cells of each tested cancer cell line were treated with the IC50 values of the tested compounds. All the cells were collected via trypsinization and washed with Dulbecco`s Phosphate Buffered Saline. Then, the cells were treated with the lysis buffer containing 5 mM ethylenediaminetetraacetic acid (EDTA), 10 mM Tris (pH 7.4), 0.5% Triton X-100 and 150 mM NaCl for 35 min on ice. After that, the lysates were vortexed and centrifuged for 20 min at 10.000 xg. The fragmented DNA was extracted from the supernatant with an equal volume of isoamyl alcohol: chloroform: neutral phenol mixture (1:24:25). Finally, the percentage of fragmented DNA was determined by performing gel electrophoresis using 2% agarose gel containing 0.1 μg/ml ethidium bromide.
Pancreatic cancer cell line (Paca2), breast cancer cell line (MCF-7) and lung cancer cell line (A549) were used to determine the percentage of DNA fragmentation after the treatment with IC50 of the tested compounds. The selected cells were suspended in 0.5 ml of lysis buffer containing 1 mM EDTA, 10 mM Tris–HCl (pH 8) and 0.2% triton X-100. Then, the cells were centrifuged at 10.000 rpm for 20 min at 4 °C. After removing the supernatant, the pellets were re-suspended in 0.5 ml of lysis buffer. Then, 0.5 ml of 25% tri-chloroacetic acid (TCA) was added to the pellets (P) and the supernatants (S), and incubated for 24 h at 4 °C. Afterwards, the cells were centrifuged at 4 °C for 25 min at 10,000 rpm and the pellets were suspended in […] of 5% TCA, followed by incubation at 80 °C for 20 min. Finally, […] of Diphenyl Amine (DPA) solution [[…] of sulfuric acid, 150 mg DPA in 10 ml glacial acetic acid, and […] acetaldehyde (16 mg/ml)] was added to each cell sample and kept at room temperature for 24 h. The percentage of fragmented DNA was measured from the absorbance reading at 600 nm wavelength using the following formula:
% Fragmented DNA = [OD(S)/[OD(S) + OD(P)] × 100 (OD: optical density, S: supernatant, P: pellet).

In series [7] the test system is HCT116 colorectal cancer cells. As to the kind of experiment: MTT assay, HCT116. Conditions: for IC50 / cytotoxicity at 100 µg/mL: Homo sapiens, HCT-116, 72 h; for IC50: read-out: IC50 HCT116.
Source text: as §1

Where [8] appears, read: read-out: MTT cell proliferation mortality assay (%) A549, at 100 μg/ml, 72 h.
Where [9] appears, read: read-out: MTT cell proliferation mortality assay (%) PC3, at 100 μg/ml, 72 h.
The mark [10] stands for this setting: read-out: MTT cell proliferation mortality assay (%) HCT116, at 100 μg/ml, 72 h.

As to `COc1ccc(-c2c(Cl)n(-c3ccc(Cl)cc3Cl)c3ncnc(N4CCOCC4)c23)cc1OC` [Compound 18b, 4-(6-chloro-7-(2,4-dichlorophenyl)-5-(3,4-dimethoxyphenyl)-7H-pyrrolo[2,3-d]pyrimidin-4-yl)morpholine], the IC50 (in general, the concentration that gives 50% inhibition) is 3.4 ± 0.3 µg/mL (≈ 6.54 µM) in series [1], 19.2 ± 0.9 µg/mL (≈ 36.9 µM) in series [3], 28.1 ± 0.4 µg/mL (≈ 54.1 µM) in series [4] and 15 ± 0.9 µg/mL (≈ 28.9 µM) in series [5]. For the same molecule, the cytotoxicity at 100 µg/mL in series [1] turned out to be 100%; in series [2] (setting [8]), 11.2 ± 0.6%; in series [3] (setting [9]), 100%; in series [4], 100%; in series [5], 100%. Besides, the DNA fragmentation rate entry in series [6] is reported as “increased significantly”.
Take `COc1cccc2c1C(=O)c1c(O)c3c(c(O)c1C2=O)C[C@@](O)(C(=O)CO)C[C@@H]3O[C@H]1C[C@H](N)[C@H](O)[C@H](C)O1` [Dox, Doxorubicin, reference compound]: the IC50 in series [1] amounted to 26.1 ± 0.1 µg/mL (≈ 48 µM); in series [2] it was 28.3 ± 1.3 µg/mL (≈ 52.1 µM); in series [7] it was 37.6 ± 0.8 µg/mL (≈ 69.2 µM); in series [3], 23.8 ± 0.2 µg/mL (≈ 43.8 µM); in series [4] it was 21.6 ± 0.8 µg/mL (≈ 39.7 µM); in series [5], 28.3 ± 0.4 µg/mL (≈ 52.1 µM). Further, the cytotoxicity at 100 µg/mL in series [1], in series [2] (read-out: MTT cell proliferation mortality assay (%) A549), in series [7] (read-out: MTT cell proliferation mortality assay (%) HCT116), in series [3] (read-out: MTT cell proliferation mortality assay (%) PC3), in series [4] and in series [5] was 100% each time.
As to `CN1CCN(c2nc(C(Cl)(Cl)Cl)nc3c2c(-c2ccc(Br)cc2)c(Cl)n3-c2ccc(Cl)cc2Cl)CC1` [Compound 17, 5-(4-bromophenyl)-6-chloro-7-(2,4-dichlorophenyl)-4-(4-methylpiperazin-1-yl)-2-(trichloromethyl)-7H-pyrrolo[2,3-d]pyrimidine], the cytotoxicity at 100 µg/mL was 74.3 ± 1.7% in series [1]; 80 to 90% in series [2] (setting [8]); 100% in series [7] (setting [10]); 80 to 90% in series [3] (setting [9]); 100% in series [4]; 100% in series [5]. Moreover, the half-maximal inhibitory concentration (IC50) in series [2] is 34.1 ± 1.5 µg/mL (≈ 51 µM); in series [7] it was 37.8 ± 0.4 µg/mL (≈ 56.5 µM); in series [3], 66.8 ± 2 µg/mL (≈ 99.8 µM); in series [4], 8.7 ± 0.8 µg/mL (≈ 13 µM); in series [5] it was 6.4 ± 0.7 µg/mL (≈ 9.57 µM). Also, the cytotoxicity in series [2] (setting [8]) was 89.2 ± 0.4%; in series [3] (read-out: MTT cell proliferation mortality assay (%) PC3, at 100 μg/ml) it was 79.5 ± 0.5%.
Consider `COc1ccc(-c2c(Cl)n(-c3ccc(Cl)cc3Cl)c3ncnc(N4CCN(C)CC4)c23)cc1OC` [Compound 16b, 6-chloro-7-(2,4-dichlorophenyl)-5-(3,4-dimethoxyphenyl)-4-(4-methylpiperazin-1-yl)-7H-pyrrolo[2,3-d]pyrimidine], for which the IC50 in series [1] came to 5.7 ± 0.9 µg/mL (≈ 10.7 µM). For the same molecule, the cytotoxicity at 100 µg/mL in series [1], in series [2] (setting [8]) and in series [5] was 100% each time. Moreover, the DNA fragmentation rate result in series [6] is listed as “increased significantly”.
In the case of `COc1ccc(-c2c(Cl)n(-c3ccc(Cl)cc3Cl)c3ncnc(NN)c23)cc1OC` [Compound 14b, 6-chloro-7-(2,4-dichlorophenyl)-5-(3,4-dimethoxyphenyl)-4-hydrazineyl-7H-pyrrolo[2,3-d]pyrimidine], the IC50 in series [1] stood at 16.8 ± 0.9 µg/mL (≈ 36.1 µM); in series [3], 18.7 ± 0.2 µg/mL (≈ 40.2 µM); in series [4] it was 17.5 ± 0.8 µg/mL (≈ 37.7 µM). Also, the cytotoxicity at 100 µg/mL in series [1] turned out to be 94.9 ± 1.1%; in series [2] (setting [8]), 100%; in series [7] (setting [10]), 100%; in series [3] (setting [9]) it was 100%; in series [4], 100%; in series [5], 100%. Also, in series [1], the cytotoxicity was in the range of 80 to 95%. In addition, the DNA fragmentation rate entry in series [6] was “increased significantly”.
For `COc1ccc(-c2c(Cl)n(-c3ccc(Cl)cc3Cl)c3ncnc(Cl)c23)cc1OC` [Compound 4b, 4,6-dichloro-7-(2,4-dichlorophenyl)-5-(3,4-dimethoxyphenyl)-7H-pyrrolo[2,3-d]pyrimidine], the IC50 turned out to be 45.8 ± 1 µg/mL (≈ 97.6 µM) in series [1]; 17.5 ± 0.4 µg/mL (≈ 37.3 µM) in series [2]; 58.4 ± 0.7 µg/mL (≈ 124 µM) in series [7]; 28.5 ± 0.8 µg/mL (≈ 60.7 µM) in series [3]; 84.3 ± 0.7 µg/mL (≈ 180 µM) in series [4]. The cytotoxicity at 100 µg/mL in series [1] was 90.3 ± 4.9%; in series [2] (setting [8]) it was 100%; in series [7] (setting [10]), 80 to 90%; in series [3] (setting [9]) it was 100%; in series [4] it was 84.3 ± 0.9%; in series [5], 100%. Besides, the values for the cytotoxicity in series [1] and in series [7] (setting [10]) were 80 to 95% and 90.2 ± 1%, respectively.
As to `NNc1ncnc2c1c(-c1ccc(Br)cc1)c(Cl)n2-c1ccc(Cl)cc1Cl` [Compound 14a, 5-(4-bromophenyl)-6-chloro-7-(2,4-dichlorophenyl)-4-hydrazineyl-7H-pyrrolo[2,3-d]pyrimidine], the IC50 in series [1] came out at 1.7 ± 0.4 µg/mL (≈ 3.52 µM); in series [4], 37.9 ± 0.9 µg/mL (≈ 78.4 µM). For the same molecule, the cytotoxicity at 100 µg/mL in series [1], in series [2] (setting [8]), in series [7] (setting [10]), in series [4] and in series [5] was 100% each time. Moreover, the DNA fragmentation rate entry in series [6] is recorded as “increased significantly”.
